Test results published in ChEMBL document CHEMBL1201862, “PubChem BioAssay data set” (2004).
One block for each molecule: values may come before it. Active and inactive are the calls of the source.

Tests used:
Caspase-3 = target: T1, Caspase-3 (Homo sapiens, UniProt P42574); assay type: functional;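 further: Dose-response selectivity test against caspase-3 for candidate inhibitors of sentrin-specific proteases (SENPs)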
T1 sequence (P42574 whole entry): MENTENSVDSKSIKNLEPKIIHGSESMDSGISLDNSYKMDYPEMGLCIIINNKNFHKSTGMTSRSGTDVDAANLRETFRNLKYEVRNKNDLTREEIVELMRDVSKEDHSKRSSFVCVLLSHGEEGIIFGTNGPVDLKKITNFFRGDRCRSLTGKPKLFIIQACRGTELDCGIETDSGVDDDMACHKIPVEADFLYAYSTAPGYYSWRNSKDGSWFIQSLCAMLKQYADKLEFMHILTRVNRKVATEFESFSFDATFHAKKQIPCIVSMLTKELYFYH

[1] = target: T2, Sentrin-specific protease 7 (Homo sapiens, UniProt Q9BQF6); assay type: functional;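 further: Luminescence-based dose-response confirmation of ultra-high-throughput screening hits, measuring inhibition of SENP7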
T2 sequence (Q9BQF6 whole entry): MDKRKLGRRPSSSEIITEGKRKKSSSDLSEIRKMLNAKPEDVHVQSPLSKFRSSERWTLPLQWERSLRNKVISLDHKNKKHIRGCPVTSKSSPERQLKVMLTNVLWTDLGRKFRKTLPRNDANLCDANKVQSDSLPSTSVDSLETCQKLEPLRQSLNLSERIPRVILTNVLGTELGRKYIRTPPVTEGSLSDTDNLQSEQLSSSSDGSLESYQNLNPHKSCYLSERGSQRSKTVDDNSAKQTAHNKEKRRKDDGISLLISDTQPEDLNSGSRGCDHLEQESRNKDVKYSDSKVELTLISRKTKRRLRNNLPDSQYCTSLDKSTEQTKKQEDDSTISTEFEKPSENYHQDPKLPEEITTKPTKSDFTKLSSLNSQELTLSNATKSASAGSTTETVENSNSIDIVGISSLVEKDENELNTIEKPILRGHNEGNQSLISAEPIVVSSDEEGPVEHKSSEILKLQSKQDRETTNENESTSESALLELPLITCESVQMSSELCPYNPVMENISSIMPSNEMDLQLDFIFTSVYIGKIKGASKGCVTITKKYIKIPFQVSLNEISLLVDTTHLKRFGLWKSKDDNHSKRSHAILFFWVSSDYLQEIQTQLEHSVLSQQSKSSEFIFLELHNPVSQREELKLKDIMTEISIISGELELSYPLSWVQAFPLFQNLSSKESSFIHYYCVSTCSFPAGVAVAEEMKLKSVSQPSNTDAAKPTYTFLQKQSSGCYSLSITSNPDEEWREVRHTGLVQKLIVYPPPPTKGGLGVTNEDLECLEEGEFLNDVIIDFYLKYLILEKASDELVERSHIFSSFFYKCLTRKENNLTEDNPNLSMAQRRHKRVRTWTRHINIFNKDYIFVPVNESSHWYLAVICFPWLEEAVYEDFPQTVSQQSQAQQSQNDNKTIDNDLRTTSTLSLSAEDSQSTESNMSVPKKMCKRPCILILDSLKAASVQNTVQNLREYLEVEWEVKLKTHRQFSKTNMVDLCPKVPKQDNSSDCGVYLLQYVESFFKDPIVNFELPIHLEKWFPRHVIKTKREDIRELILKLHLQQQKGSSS

[2] = target: T3, Sentrin-specific protease 6 (Homo sapiens, UniProt Q9GZR1); assay type: functional;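 further: Luminescence-based dose-response confirmatory assay of SENP6 inhibition, following up an ultra-high-throughput screen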
T3 sequence (Q9GZR1 whole entry): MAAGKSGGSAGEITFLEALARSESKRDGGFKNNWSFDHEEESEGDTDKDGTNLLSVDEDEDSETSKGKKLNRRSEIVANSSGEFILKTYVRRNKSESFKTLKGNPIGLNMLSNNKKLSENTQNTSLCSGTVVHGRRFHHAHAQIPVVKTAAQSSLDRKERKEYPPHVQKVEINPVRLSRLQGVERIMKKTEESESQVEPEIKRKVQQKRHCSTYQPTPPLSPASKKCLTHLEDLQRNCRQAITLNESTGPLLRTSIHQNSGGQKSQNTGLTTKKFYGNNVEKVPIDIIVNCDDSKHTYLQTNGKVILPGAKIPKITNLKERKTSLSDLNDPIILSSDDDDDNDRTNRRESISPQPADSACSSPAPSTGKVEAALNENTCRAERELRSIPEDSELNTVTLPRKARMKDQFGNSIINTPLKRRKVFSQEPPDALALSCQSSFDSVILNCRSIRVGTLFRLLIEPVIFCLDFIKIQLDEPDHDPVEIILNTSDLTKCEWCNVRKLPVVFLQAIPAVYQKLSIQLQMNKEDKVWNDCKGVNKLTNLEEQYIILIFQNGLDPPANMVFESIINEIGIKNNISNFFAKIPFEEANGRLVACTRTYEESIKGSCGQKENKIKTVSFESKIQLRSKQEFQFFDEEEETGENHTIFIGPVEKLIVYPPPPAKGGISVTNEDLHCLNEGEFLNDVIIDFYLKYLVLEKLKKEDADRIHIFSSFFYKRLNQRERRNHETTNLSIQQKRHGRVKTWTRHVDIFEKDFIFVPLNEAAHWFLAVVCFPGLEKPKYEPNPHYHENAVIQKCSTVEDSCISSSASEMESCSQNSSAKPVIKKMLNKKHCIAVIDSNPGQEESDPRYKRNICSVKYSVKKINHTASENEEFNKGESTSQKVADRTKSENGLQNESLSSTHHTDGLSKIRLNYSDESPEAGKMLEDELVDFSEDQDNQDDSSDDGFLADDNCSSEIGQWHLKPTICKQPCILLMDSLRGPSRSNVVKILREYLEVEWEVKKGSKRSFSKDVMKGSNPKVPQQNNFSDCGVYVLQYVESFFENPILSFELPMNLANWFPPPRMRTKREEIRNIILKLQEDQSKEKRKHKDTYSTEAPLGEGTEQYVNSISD

[3] = target: T4, Sentrin-specific protease 8 (Homo sapiens, UniProt Q96LD8); assay type: functional;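 further: luminescence read-out of SENP8 inhibition, dose-response confirmation following an ultra-high-throughput screen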
T4 sequence (Q96LD8 whole entry): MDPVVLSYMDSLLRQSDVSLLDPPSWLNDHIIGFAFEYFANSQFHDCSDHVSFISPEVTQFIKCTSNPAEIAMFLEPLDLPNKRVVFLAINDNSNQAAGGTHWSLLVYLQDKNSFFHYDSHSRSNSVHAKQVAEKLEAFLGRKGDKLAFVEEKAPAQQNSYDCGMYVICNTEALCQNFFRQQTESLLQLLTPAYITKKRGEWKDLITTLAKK

Cysteine protease ATG4B = target: T5, Cysteine protease ATG4B (Homo sapiens, UniProt Q9Y4P1); assay type: functional;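 further: Fluorescence-based dose-response confirmation assay measuring inhibition of ATG4B activity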
T5 sequence (Q9Y4P1 whole entry): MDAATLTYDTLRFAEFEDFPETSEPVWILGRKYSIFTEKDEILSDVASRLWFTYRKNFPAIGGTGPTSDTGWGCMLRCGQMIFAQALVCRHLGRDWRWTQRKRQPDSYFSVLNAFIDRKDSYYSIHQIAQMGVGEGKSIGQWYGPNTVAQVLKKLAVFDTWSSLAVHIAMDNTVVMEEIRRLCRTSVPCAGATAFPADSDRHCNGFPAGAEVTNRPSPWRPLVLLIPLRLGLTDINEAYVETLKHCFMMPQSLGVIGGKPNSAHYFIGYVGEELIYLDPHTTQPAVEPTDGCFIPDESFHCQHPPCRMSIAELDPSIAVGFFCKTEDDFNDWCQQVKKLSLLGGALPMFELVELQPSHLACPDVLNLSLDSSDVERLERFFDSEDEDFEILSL

Phospholipase A2 = Phospholipase A2 (Homo sapiens, UniProt P04054); assay type: functional;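 further: confirmatory dose-response counterscreen on phospholipase A2, testing hits that came from an ultra-high-throughput screen for ATG4B inhibitors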
Cytochrome P450 2C9 = Cytochrome P450 2C9 (Homo sapiens, UniProt P11712)
Cytochrome P450 3A4 = Cytochrome P450 3A4 (Homo sapiens, UniProt P08684);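 further: CYP3A4 tested as one member of a cytochrome P450 panel screen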
[4] = target: T6, Calpain-2 catalytic subunit (Sus scrofa, UniProt P43367); experiment: m-calpain protease blockers, concentration series – biochemical, fluorogenic peptide substrate, dose response (AID 1420); assay type: functional
T6 sequence (P43367 whole entry): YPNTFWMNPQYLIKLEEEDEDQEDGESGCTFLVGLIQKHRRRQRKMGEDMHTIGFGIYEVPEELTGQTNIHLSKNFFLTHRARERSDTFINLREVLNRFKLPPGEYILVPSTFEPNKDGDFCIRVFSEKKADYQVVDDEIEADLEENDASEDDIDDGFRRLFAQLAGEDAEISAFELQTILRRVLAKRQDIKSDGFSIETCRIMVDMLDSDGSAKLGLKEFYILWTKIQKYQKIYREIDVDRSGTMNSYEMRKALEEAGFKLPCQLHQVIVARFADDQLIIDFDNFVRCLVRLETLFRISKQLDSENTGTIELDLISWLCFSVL

[5] = Luminescence Cell-Based Dose Retest to Confirm Inhibitors of Cancer Stem Cells. [Related pubchem assays (depositor defined):AID2717, AID2721]; assay type: functional; settings: Homo sapiens
Coagulation factor XII = target: T7, Coagulation factor XII (Homo sapiens, UniProt P00748); assay type: functional;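 further: activated factor XIIa alpha cleaving a fluorogenic AMC peptide substrate; inhibitor potency from loss of enzyme activity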
T7 sequence (P00748 whole entry): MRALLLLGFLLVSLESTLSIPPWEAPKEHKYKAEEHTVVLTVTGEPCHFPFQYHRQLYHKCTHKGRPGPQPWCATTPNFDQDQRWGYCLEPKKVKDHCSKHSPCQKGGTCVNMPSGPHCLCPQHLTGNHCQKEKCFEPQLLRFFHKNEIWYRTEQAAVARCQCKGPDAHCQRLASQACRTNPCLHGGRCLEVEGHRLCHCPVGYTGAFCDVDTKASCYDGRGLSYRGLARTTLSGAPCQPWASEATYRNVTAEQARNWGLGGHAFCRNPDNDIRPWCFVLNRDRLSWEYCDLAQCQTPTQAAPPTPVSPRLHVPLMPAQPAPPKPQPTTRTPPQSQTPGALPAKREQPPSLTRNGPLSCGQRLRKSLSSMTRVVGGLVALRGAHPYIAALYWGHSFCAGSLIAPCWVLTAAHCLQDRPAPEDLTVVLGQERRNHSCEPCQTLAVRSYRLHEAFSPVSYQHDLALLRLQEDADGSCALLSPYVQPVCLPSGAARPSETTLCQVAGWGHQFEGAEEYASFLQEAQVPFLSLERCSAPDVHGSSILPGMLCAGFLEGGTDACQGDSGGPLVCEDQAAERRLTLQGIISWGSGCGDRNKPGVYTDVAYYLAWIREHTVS

[6] = target: Heat shock protein HSP 90-alpha (Homo sapiens, UniProt P07900); assay type: functional, organism-based
Cytochrome P450 1A2 = target: T8, Cytochrome P450 1A2 (Homo sapiens, UniProt P05177);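 further: PubChem cytochrome P450 panel assay, CYP1A2 panel member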
T8 sequence (P05177 whole entry): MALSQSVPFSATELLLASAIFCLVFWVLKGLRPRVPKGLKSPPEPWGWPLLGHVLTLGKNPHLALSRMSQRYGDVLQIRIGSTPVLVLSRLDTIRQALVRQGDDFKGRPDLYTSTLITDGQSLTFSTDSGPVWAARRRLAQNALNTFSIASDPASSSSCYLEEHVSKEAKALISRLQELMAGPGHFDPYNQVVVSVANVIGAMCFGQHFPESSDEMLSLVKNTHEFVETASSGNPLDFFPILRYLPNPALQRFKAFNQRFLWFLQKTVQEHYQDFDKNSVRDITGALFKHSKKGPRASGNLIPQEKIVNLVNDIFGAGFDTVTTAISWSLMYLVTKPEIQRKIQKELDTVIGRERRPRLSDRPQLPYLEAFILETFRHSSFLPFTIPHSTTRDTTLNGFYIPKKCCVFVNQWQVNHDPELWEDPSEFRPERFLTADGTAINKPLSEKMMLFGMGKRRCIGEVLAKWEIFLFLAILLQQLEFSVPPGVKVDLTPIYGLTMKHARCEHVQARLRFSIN

[7] = target: Dual specificity tyrosine-phosphorylation-regulated kinase 1A (Rattus norvegicus, UniProt Q63470); assay type: biochemical, Homo sapiens
Tumor necrosis factor = Tumor necrosis factor (Homo sapiens, UniProt P01375); experiment: analog potency on TNFa NF-kB signaling – cell-based, revised, SAR follow-up (AID 2337); assay type: functional
HEK293 = experiment: cells; settings: Homo sapiens;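 further: cells exposed to compound for 14 hours overnight before viability readout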
P388/ADR = experiment: cells; assay type: functional; settings: Mus musculus
SN12K1 = experiment: cells; assay type: functional; settings: Homo sapiens
P388 = experiment: cells; assay type: functional; settings: Mus musculus

Sequence of Cytochrome P450 3A4 (P08684 whole entry): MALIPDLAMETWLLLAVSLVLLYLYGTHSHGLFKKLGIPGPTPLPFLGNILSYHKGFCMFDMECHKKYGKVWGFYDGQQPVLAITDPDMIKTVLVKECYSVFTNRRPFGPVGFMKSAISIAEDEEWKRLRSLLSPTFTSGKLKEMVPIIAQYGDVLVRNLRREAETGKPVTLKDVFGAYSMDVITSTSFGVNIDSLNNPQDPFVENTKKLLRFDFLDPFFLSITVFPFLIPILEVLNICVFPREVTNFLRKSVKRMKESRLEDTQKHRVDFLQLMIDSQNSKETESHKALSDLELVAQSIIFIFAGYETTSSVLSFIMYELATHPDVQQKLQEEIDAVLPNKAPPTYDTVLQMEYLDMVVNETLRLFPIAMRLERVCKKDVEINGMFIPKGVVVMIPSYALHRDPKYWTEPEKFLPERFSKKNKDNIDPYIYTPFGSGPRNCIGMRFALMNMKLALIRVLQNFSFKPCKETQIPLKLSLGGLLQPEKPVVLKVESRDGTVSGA
Sequence of Tumor necrosis factor (P01375 whole entry): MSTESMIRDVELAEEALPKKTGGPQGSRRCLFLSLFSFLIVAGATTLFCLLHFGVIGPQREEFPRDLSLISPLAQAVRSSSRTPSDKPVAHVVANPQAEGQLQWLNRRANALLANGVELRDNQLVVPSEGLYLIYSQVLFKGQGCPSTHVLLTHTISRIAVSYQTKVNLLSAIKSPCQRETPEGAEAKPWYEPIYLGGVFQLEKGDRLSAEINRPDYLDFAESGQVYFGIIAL
Sequence of Phospholipase A2 (P04054 whole entry): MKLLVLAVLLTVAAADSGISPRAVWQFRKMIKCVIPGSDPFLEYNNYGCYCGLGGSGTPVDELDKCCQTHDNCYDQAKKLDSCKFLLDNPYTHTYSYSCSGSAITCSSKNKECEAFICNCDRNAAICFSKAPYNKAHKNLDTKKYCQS
Sequence of Cytochrome P450 2C9 (P11712 whole entry): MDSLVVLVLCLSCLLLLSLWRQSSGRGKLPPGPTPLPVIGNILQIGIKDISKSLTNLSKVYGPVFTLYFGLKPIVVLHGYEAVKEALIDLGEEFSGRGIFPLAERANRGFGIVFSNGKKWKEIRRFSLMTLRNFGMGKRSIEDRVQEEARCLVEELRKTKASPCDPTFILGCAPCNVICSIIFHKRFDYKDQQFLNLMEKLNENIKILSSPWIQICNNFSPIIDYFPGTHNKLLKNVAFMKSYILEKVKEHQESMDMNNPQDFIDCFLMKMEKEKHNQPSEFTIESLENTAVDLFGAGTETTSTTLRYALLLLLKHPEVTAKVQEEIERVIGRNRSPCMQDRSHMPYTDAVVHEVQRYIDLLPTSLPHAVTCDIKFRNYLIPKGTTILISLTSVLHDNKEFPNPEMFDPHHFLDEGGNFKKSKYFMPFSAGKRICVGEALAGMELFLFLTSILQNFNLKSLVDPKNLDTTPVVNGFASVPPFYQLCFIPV

IC50 (Caspase-3): 17.7 µM (active)
IC50 [1]: 5.03 µM (active)
IC50 [2]: 14.6 µM (active)
IC50 (Cysteine protease ATG4B): 14.5 µM (active)
IC50 (Phospholipase A2): 7.21 µM (active)
Structure (SMILES): Cc1ccc(-c2nnc(SCc3ccccc3F)o2)cc1
IC50 [3]: 21.4 µM (active)

Structure (SMILES): COc1ccc2c(c1)CN([C@H](C)[C@@H]1CC[C@@H]3[C@H]4CC[C@H]5C[C@@H](O)CC[C@@]5(C)[C@H]4CC[C@]31C)CO2
AC50 (Cytochrome P450 2C9): 7.94 µM (inconclusive)
AC50 (Cytochrome P450 3A4): inconclusive

Structure (SMILES): Cc1c(C(=O)N(Cc2ccccc2)Cc2cccs2)cnn1-c1ccc(Cl)cc1
IC50 [4]: 4.66 µM (not active)
AC50 [5]: 1.77 µM (active)
IC50 (Coagulation factor XII): > 50 µM (inactive)
AC50 [6]: 3.44 µM (active)

AC50 (Cytochrome P450 3A4): inconclusive
Structure (SMILES): Cc1cccc(NC(=O)C2(c3ccccc3)CC2(Cl)Cl)c1 (centres undefined)

AC50 (Cytochrome P450 1A2): 10 µM (inconclusive)
AC50 (Cytochrome P450 3A4): inconclusive
Structure (SMILES): COc1ccc(-c2nc3cnc(N4CCN(C)CC4)nc3n(Cc3ccc(F)cc3)c2=O)cc1

AC50 [7]: 3.68 µM (active)
Structure (SMILES): COc1ccc(/C=C/C(=O)Nc2cccc(C(C)=O)c2)cc1

Structure (SMILES): CN(C)c1ccc(NC(=O)c2ccc(CN3CCc4ccccc43)cc2)cc1
IC50 (Tumor necrosis factor): 5.37 µM (active)
IC50 (HEK293): > 20 µM (inactive)

Structure (SMILES): CCN(CC)CCNC(=O)C1COc2ccc(-c3cc(=O)c4ccccc4o3)cc2O1 (centres undefined)
GI50 (P388/ADR): 12.3 µM (inactive)
GI50 (SN12K1): 16.8 µM (inactive)
GI50 (P388): 0.29 µM (active)

Structure (SMILES): COc1cc2c(cc1OC)C(Cl)C(c1ccc(Br)cc1)=C2Cl (centres undefined)
GI50 (P388/ADR): 3.78 µM (inactive)
GI50 (SN12K1): 15.6 µM (inactive)
GI50 (P388): 3.94 µM (inactive)

Structure (SMILES): CCOC(=O)/C(O)=C1\C(=O)N(C)C(=O)C1c1cccc(OC)c1 (centres undefined)
GI50 (P388/ADR): > 100 µM (inactive)
GI50 (SN12K1): > 100 µM (inactive)
GI50 (P388): > 100 µM (inactive)

Structure (SMILES): O=S(=O)(O)c1cc(/N=[N+](\[O-])c2ccc(/N=N/c3ccccc3)cc2S(=O)(=O)O)ccc1/C=C/c1ccc(/N=[N+](\[O-])c2ccc(/N=N/c3ccccc3)cc2S(=O)(=O)O)cc1S(=O)(=O)O
GI50 (SN12K1): > 31.6 µM (inactive)
GI50 (P388): > 100 µM (inactive)
